Measurements as given in PubChem BioAssay (NCI).
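GI50 marks 50% less growth. TGI marks complete inhibition of growth.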

Experiments:
Assay in all cases: growth of human tumour cells (NCI), 384-well format
M14 melanoma = tested on: M14 melanoma
BT-549 breast = tested on: BT-549 breast
SK-MEL-28 melanoma = tested on: SK-MEL-28 melanoma
UACC-62 melanoma = tested on: UACC-62 melanoma
A498 renal = tested on: A498 renal
SNB-19 CNS = tested on: SNB-19 CNS
T-47D breast = tested on: T-47D breast
HCT-15 colon = tested on: HCT-15 colon
NCI/ADR-RES ovarian = tested on: NCI/ADR-RES ovarian
SNB-75 CNS = tested on: SNB-75 CNS
SF-539 CNS = tested on: SF-539 CNS
UO-31 renal = tested on: UO-31 renal
OVCAR-5 ovarian = tested on: OVCAR-5 ovarian
NCI-H322M lung = tested on: NCI-H322M lung
786-0 renal = tested on: 786-0 renal
IGROV1 ovarian = tested on: IGROV1 ovarian
NCI-H226 lung = tested on: NCI-H226 lung
A549 NSCLC = tested on: A549 NSCLC
TK-10 renal = tested on: TK-10 renal
ACHN renal = tested on: ACHN renal
PC-3 prostate = tested on: PC-3 prostate
HS 578T breast = tested on: HS 578T breast
HOP-62 NSCLC = tested on: HOP-62 NSCLC
KM12 colon = tested on: KM12 colon
LOX IMVI melanoma = tested on: LOX IMVI melanoma
SF-268 CNS = tested on: SF-268 CNS
NCI-H23 lung = tested on: NCI-H23 lung
SF-295 CNS = tested on: SF-295 CNS
RPMI-8226 leukemia = tested on: RPMI-8226 leukemia
UACC-257 melanoma = tested on: UACC-257 melanoma
U251 glioblastoma = tested on: U251 glioblastoma
SK-MEL-2 melanoma = tested on: SK-MEL-2 melanoma
MCF7 breast = tested on: MCF7 breast
RXF 393 renal = tested on: RXF 393 renal
HCT-116 colon = tested on: HCT-116 colon
MDA-MB-231 breast = tested on: MDA-MB-231 breast
CCRF-CEM leukemia = tested on: CCRF-CEM leukemia
CAKI-1 renal = tested on: CAKI-1 renal
K-562 leukemia = tested on: K-562 leukemia
MALME-3M melanoma = tested on: MALME-3M melanoma
EKVX NSCLC = tested on: EKVX NSCLC
OVCAR-3 ovarian = tested on: OVCAR-3 ovarian
OVCAR-8 ovarian = tested on: OVCAR-8 ovarian
SW-620 colon = tested on: SW-620 colon
HT29 colon = tested on: HT29 colon
NCI-H522 lung = tested on: NCI-H522 lung
HL-60(TB) leukemia = tested on: HL-60(TB) leukemia
HOP-92 NSCLC = tested on: HOP-92 NSCLC
MDA-MB-468 breast = tested on: MDA-MB-468 breast
MDA-MB-435 melanoma = tested on: MDA-MB-435 melanoma
OVCAR-4 ovarian = tested on: OVCAR-4 ovarian
MOLT-4 leukemia = tested on: MOLT-4 leukemia
DU-145 prostate = tested on: DU-145 prostate
SN12C renal = tested on: SN12C renal
SK-OV-3 ovarian = tested on: SK-OV-3 ovarian

OCC1OC(n2cnc3c2NC=NC[C@H]3O)CC1O (stereo not given in full)
GI50 (M14 melanoma): > 100 µM
TGI (M14 melanoma): > 100 µM
GI50 (BT-549 breast): > 100 µM
TGI (BT-549 breast): > 100 µM
GI50 (SK-MEL-28 melanoma): > 100 µM
TGI (SK-MEL-28 melanoma): > 100 µM
GI50 (UACC-62 melanoma): > 100 µM
TGI (UACC-62 melanoma): > 100 µM
GI50 (A498 renal): > 100 µM
TGI (A498 renal): > 100 µM
GI50 (SNB-19 CNS): > 100 µM
TGI (SNB-19 CNS): > 100 µM
GI50 (T-47D breast): > 100 µM
TGI (T-47D breast): > 100 µM
GI50 (HCT-15 colon): > 100 µM
TGI (HCT-15 colon): > 100 µM
GI50 (NCI/ADR-RES ovarian): > 100 µM
TGI (NCI/ADR-RES ovarian): > 100 µM
GI50 (SNB-75 CNS): > 100 µM
TGI (SNB-75 CNS): > 100 µM
GI50 (SF-539 CNS): > 100 µM
TGI (SF-539 CNS): > 100 µM
GI50 (UO-31 renal): > 100 µM
TGI (UO-31 renal): > 100 µM
GI50 (OVCAR-5 ovarian): > 100 µM
TGI (OVCAR-5 ovarian): > 100 µM
GI50 (NCI-H322M lung): > 100 µM
TGI (NCI-H322M lung): > 100 µM
GI50 ([…]-0 renal): > 100 µM
TGI (786-0 renal): > 100 µM
GI50 (IGROV1 ovarian): > 100 µM
TGI (IGROV1 ovarian): > 100 µM
GI50 (NCI-H226 lung): > 100 µM
TGI (NCI-H226 lung): > 100 µM
GI50 (A549 NSCLC): > 100 µM
TGI (A549 NSCLC): > 100 µM
GI50 (TK-10 renal): > 100 µM
TGI (TK-10 renal): > 100 µM
GI50 (ACHN renal): > 100 µM
TGI (ACHN renal): > 100 µM
GI50 (PC-3 prostate): > 100 µM
TGI (PC-3 prostate): > 100 µM
GI50 (HS 578T breast): > 100 µM
TGI (HS 578T breast): > 100 µM
GI50 (HOP-62 NSCLC): > 100 µM
TGI (HOP-62 NSCLC): > 100 µM
GI50 (KM12 colon): > 100 µM
TGI (KM12 colon): > 100 µM
GI50 (LOX IMVI melanoma): > 100 µM
TGI (LOX IMVI melanoma): > 100 µM
GI50 (SF-268 CNS): > 100 µM
TGI (SF-268 CNS): > 100 µM
GI50 (NCI-H23 lung): > 100 µM
TGI (NCI-H23 lung): > 100 µM
GI50 (SF-295 CNS): > 100 µM
TGI (SF-295 CNS): > 100 µM
GI50 (RPMI-8226 leukemia): > 100 µM
TGI (RPMI-8226 leukemia): > 100 µM
GI50 (UACC-257 melanoma): > 100 µM
TGI (UACC-257 melanoma): > 100 µM
GI50 (U251 glioblastoma): > 100 µM
TGI (U251 glioblastoma): > 100 µM
GI50 (SK-MEL-2 melanoma): > 100 µM
TGI (SK-MEL-2 melanoma): > 100 µM
GI50 (MCF7 breast): > 100 µM
TGI (MCF7 breast): > 100 µM
GI50 (RXF 393 renal): > 100 µM
TGI (RXF 393 renal): > 100 µM
GI50 (HCT-116 colon): > 100 µM
TGI (HCT-116 colon): > 100 µM
GI50 (MDA-MB-231 breast): > 100 µM
TGI (MDA-MB-231 breast): > 100 µM
GI50 (CCRF-CEM leukemia): > 100 µM
TGI (CCRF-CEM leukemia): > 100 µM
GI50 (CAKI-1 renal): > 100 µM
TGI (CAKI-1 renal): > 100 µM
GI50 (K-562 leukemia): > 100 µM
TGI (K-562 leukemia): > 100 µM
GI50 (MALME-3M melanoma): > 100 µM
TGI (MALME-3M melanoma): > 100 µM
GI50 (EKVX NSCLC): > 100 µM
TGI (EKVX NSCLC): > 100 µM
GI50 (OVCAR-3 ovarian): > 100 µM
TGI (OVCAR-3 ovarian): > 100 µM
GI50 (OVCAR-8 ovarian): > 100 µM
TGI (OVCAR-8 ovarian): > 100 µM
GI50 (SW-620 colon): > 100 µM
TGI (SW-620 colon): > 100 µM
GI50 (HT29 colon): > 100 µM
TGI (HT29 colon): > 100 µM
GI50 (NCI-H522 lung): > 100 µM
TGI (NCI-H522 lung): > 100 µM
GI50 (HL-60(TB) leukemia): > 100 µM
TGI (HL-60(TB) leukemia): > 100 µM
GI50 (HOP-92 NSCLC): > 100 µM
TGI (HOP-92 NSCLC): > 100 µM
GI50 (MDA-MB-468 breast): > 100 µM
TGI (MDA-MB-468 breast): > 100 µM
GI50 (MDA-MB-435 melanoma): > 100 µM
TGI (MDA-MB-435 melanoma): > 100 µM
GI50 (OVCAR-4 ovarian): > 100 µM
TGI (OVCAR-4 ovarian): > 100 µM
GI50 (MOLT-4 leukemia): > 100 µM
TGI (MOLT-4 leukemia): > 100 µM
GI50 (DU-145 prostate): > 100 µM
TGI (DU-145 prostate): > 100 µM
GI50 (SN12C renal): > 100 µM
TGI (SN12C renal): > 100 µM
GI50 (SK-OV-3 ovarian): > 100 µM
TGI (SK-OV-3 ovarian): > 100 µM
